What was measured:
Aβ42 = target: T1, Aβ42 (Homo sapiens, UniProt P05067); conditions: cited from earlier work
T1 construct: The importance of residues 1-42 (Aβ42) in Alzheimer's disease was highlighted

TgCRND8 mice [1] = test: Morris Water Maze, spatial reference memory version, three-day trial paradigm (treatment/reversal study); type: in vivo, mouse; conditions: 1 month treatment from 5 months of age, three-day paradigm
Procedure: A cohort entered the study at 5 months of age and outcomes were analyzed at 6-months of age. The body weight, coat characteristics and in cage behavior was monitored. All experiments were performed according to the Canadian Council on Animal Care guidelines.
Behavioral Test—Reversal Study—Mice entered the Morris water maze test with a hidden platform on day one without pretraining. Mice were tested for 3 days with six trials per day. On the fourth day, the platform was removed from the pool and each mouse received one 30-s swim probe trial. On the last day the animals underwent a cue test in order to evaluate swimming ability, eye sight and general cognition. The cue test is composed at the platform being placed in a different quadrant than that used for testing and is tagged with a flag. Animals are allowed 60 s to find the platform. […] Behavioural data was analysed using a mixed model of factorial analysis of variance (ANOVA) with drug or genotype and training sessions as repeated measure factors.
The cognitive function of TgCRND8 mice was assessed using the spatial reference memory version of the Morris Water Maze using a three day trial paradigm (FIGS. 4-8).
Behavioural data was analysed using a mixed model of factorial analysis of variance (ANOVA) with drug and genotype as between subject variables and training sessions as within subject variable.
In these experiments, the dosage and oral administration of compounds, and the behavioral and neurochemical assays were the same as those employed in the above treatment experiments.

TgCRND8 mice [2] = test: Cerebral amyloid plaque burden (anti-Aβ immunostaining, image analysis); type: in vivo, mouse
Procedure: (§1) Cerebral amyloid burden—Brains were removed and one hemisphere was fixed in 4% paraformaldehyde and embedded in paraffin wax in the mid saggital plane. To generate sets of systematic uniform random sections, 5 μm serial sections were collected across the entire hemisphere. Sets of sections at […] intervals were used for analyses (10-14 sections/set). Plaque were identified after antigen retrieval with formic acid, and incubated with primary anti-Aβ antibody (Dako M-0872), followed by secondary antibody (Dako StreptABCcomplex/horseradish kit). End products were visualized with DAB counter-stained with hematoxylin. Amyloid plaque burden was assessed using Leco IA-3001 image analysis software interfaced with Leica microscope and Hitachi KP-M1U CCD video camera. Vascular burden was analyzed similarly and a dissector was used to measure the diameter of affected vessels.
as §1, with “camera.” for “camera. Vascular burden was analyzed similarly and a dissector was used to measure the diameter of affected vessels.”

TgCRND8 mice [3] = test: Cerebral Aβ content (Aβ40 and Aβ42 kits on hemi-brain homogenates); type: in vivo, mouse; parameters: Total Aβ: unit not given here
Procedure: (§2) Plasma and Cerebral Aβ Content—Hemi-brain samples were homogenized in a buffered sucrose solution, followed by either 0.4% diethylamine/100 mM NaCl for soluble Aβ levels or cold formic acid for the isolation of total Aβ. After neutralization the samples were diluted and analyzed for Aβ40 and Aβ42 using commercially available kits (BIOSOURCE International). Each hemisphere was analyzed in triplicate with the mean±SEM reported. Western blot analyses were performed on all fractions using urea gels for Aβ species analyses. Aβ was detected using 6E10 (BIOSOURCE International) and Enhanced Chemiluminenscence (Amersham).
as §2, with “reported.” for “reported. Western blot analyses were performed on all fractions using urea gels for Aβ species analyses. Aβ was detected using 6E10 (BIOSOURCE International) and Enhanced Chemiluminenscence (Amersham).”

TgCRND8 mice [4] = test: Morris Water Maze, spatial reference memory version, five-day trial paradigm (prevention study); type: in vivo, mouse; conditions: 6 months of age
Procedure: Age and sex-matched cohorts of TgCRND8 mice and non-transgenic littermates (n=35 in each cohort) were either untreated, or were given a compound of the present invention as indicated below at 30 mg/day/mouse beginning at age of about 6 weeks. The mice were followed for outcome measures cognitive function, brain Aβ levels, brain pathology, and survival at 4 months and 6 months of age.
Two cohorts entered the study at 6 weeks of age and outcomes were analyzed at 4- and 6-months of age. The body weight, coat characteristics and in cage behavior was monitored. All experiments were performed according to the Canadian Council on Animal Care guidelines.
Behavioral tests—After non-spatial pre-training, mice underwent place discrimination training for 5 days with 4 trials per day. Behavioral data was analyzed using a mixed model of factorial analysis of variance (ANOVA) with drug or genotype and training sessions as repeated measure factors.
The cognitive function of TgCRND8 mice was assessed using the spatial reference memory version of the Morris Water Maze using a five-day trial paradigm (FIGS. 1C-1H). […] The improved performance was also not due to nutritional or caloric effects because body weight, activity, and coat condition were not different between treated and untreated cohorts. […] Gender effects were not significant between any treatment group (p=0.85).

TgCRND8 mice [5] = test: Survival census (Kaplan-Meier); type: in vivo, mouse; conditions: vs untreated TgCRND8
Procedure: Survival Census—The probability of survival was assessed by the Kaplan-Meier technique, computing the probability of survival at every occurrence of death, thus making it suitable for small sample sizes. For the analyses of survival, 35 mice were used for each treatment group. The comparison between treatments was reported using the Tarone-Ware test.

TgCRND8 mice [6] = test: Plasma Aβ levels; type: in vivo, mouse
Procedure: as §2
as §2, with “reported.” for “reported. Western blot analyses were performed on all fractions using urea gels for Aβ species analyses. Aβ was detected using 6E10 (BIOSOURCE International) and Enhanced Chemiluminenscence (Amersham).”

AD patients = conditions: human, in vivo; cited from earlier work
[7] = 1 month treatment from 5 months of age
[8] = 1 month treatment, 30 mg/mouse/day from 5 months, analyzed at 6 months of age
[9] = 4 month prevention, 30 mg/mouse/day from 6 weeks of age
[10] = 6 month prevention, 30 mg/mouse/day from 6 weeks of age

T1 sequence (P05067 672-713 limits assumed): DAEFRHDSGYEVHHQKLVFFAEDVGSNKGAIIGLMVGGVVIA

Structure (SMILES): O[C@H]1[C@H](O)[C@@H](O)[C@H](O)[C@@H](O)[C@H]1O [Myo-Inositol, myo-inositol, reference compound]
- stabilization of Aβ42 micelle (Aβ42): stabilizes a small micelle of Aβ42
- cognitive function, treated TgCRND8 mice vs non-Tg littermates (words) (TgCRND8 mice [1]): significantly different from treated non-Tg littermates
- plaque burden vs untreated (TgCRND8 mice [2]; [7]): did not affect the plaque burden or Aβ load
- Plaque Area (TgCRND8 mice [2]; [8]): 469968 ± 35664 μm^2
- Plaque Count (TgCRND8 mice [2]; [8]): 1324 ± 69
- Total Plaque Area/Total Brain Area (TgCRND8 mice [2]; [8]): 0.153 ± 0.088%
- Plaque Area (TgCRND8 mice [2]; [9]): 91902 ± 7453 μm^2
- Plaque Count (TgCRND8 mice [2]; [9]): 649 ± 50
- Total Plaque Area/Total Brain Area (TgCRND8 mice [2]; [9]): 0.023 ± 0.004%
- Plaque Area (TgCRND8 mice [2]; [10]): 400013 ± 19638 μm^2
- Plaque Count (TgCRND8 mice [2]; [10]): 927 ± 78
- Total Plaque Area/Total Brain Area (TgCRND8 mice [2]; [10]): 0.100 ± 0.005%
- Aβ load vs untreated (TgCRND8 mice [3]; [7]): did not affect the plaque burden or Aβ load
- Total Aβ (TgCRND8 mice [3]; [8]): 20490 ± 526
- Total Aβ (TgCRND8 mice [3]; [9]): 4969 ± 434
- Total Aβ (TgCRND8 mice [3]; [10]): 17489 ± 354
- cognitive function, treated vs untreated TgCRND8 mice (words) (TgCRND8 mice [4]): did not alter cognitive function
- effect on survival of TgCRND8 mice (TgCRND8 mice [5]): did not affect overall survival significantly
- Plasma Aβ Levels (TgCRND8 mice [6]; 1 month treatment): 2110 ± 174 pg/mL
- effect on plasma Aβ levels in comparison to untreated (words) (TgCRND8 mice [6]; [7]): Neither myo-inositol, epi-inositol nor scyllo-inositol treatment had any effect on plasma Aβ levels
- Plasma Aβ Levels (TgCRND8 mice [6]; 4 month prevention): 942 ± 30 pg/mL
- Plasma Aβ Levels (TgCRND8 mice [6]; 6 month prevention): 969 ± 67 pg/mL

Structure (SMILES): O[C@H]1[C@H](O)[C@@H](O)[C@H](O)[C@@H](O)[C@H]1O [inositol]
- CAMCOG subscales orientation and language (AD patients): did show significant improvement
